Results: US4069337A, “2-Substituted-indole-1-lower-alkanecarboxamides having anti-secretory or anti-ulcer activity” (Sterling Drug Inc., priority 1976, dated 1978)
Where two headings read alike, the source gives them in different places.

Columns and labels:
[1] = test system: reserpine-induced stomach ulceration; test: anti-ulcer activity, reserpine-induced ulcer test (method of Selmici et al.); type: in vivo, male, albino, Sprague-Dawley rats; conditions: for inhibition in vivo at 100 mg/kg / Anti-Ulcer: ratio of number of animals with ulcers to total number of animals in the test group: 100 mg./kg.
Description: The anti-ulcer activity of the compounds was determined using the reserpine-induced anti-ulcer test method, described by Selmici et al., which is described briefly as follows: male, albino, Sprague-Dawley rats, weighing approximately 300 g., were divided into medicated and control groups of at least five rats each, and one positive control group of five rats medicated with a known drug at the active dose was run with each experiment. The rats were medicated forty-eight, twenty-four, and one hour before receiving an injection of reserpine. All test drugs were administered orally in terms of base, and the control rats received only the vehicle of medication. The rats were housed individually in wire cages, and food was withdrawn 24 hours prior to injection of reserpine, while water was allowed ad libitum. One hour following the third medication, 5.0 mg. of reserpine per kilogram of body weight in a concentration of 5 mg./ml. was injected intramuscularly in each rat. Eighteen hours after injection the rats were sacrificed, their stomachs removed, opened along the greater curvature, rinsed in warm saline, and pinned to a cork board for gross observation. The stomachs were examined for the number and size of ulcerations located in the glandular portion of the stomach with the aid of a one millimeter grid ocular with a 10x dissecting microscope. The degree of ulceration was arbitrarily graded according to the number and size of the ulcers as follows:
The points were added together and divided by the number of rats in each group to give an ulcer score, and the difference in the mean scores of the medicated and control group was expressed as percent inhibition of ulceration. Alternatively, the results can be expressed as a ratio of the total number of rats with any degree of ulceration (as the numerator) to the total number of rats in the test group (as the denominator).
(§1) Data obtained on administration of the compounds of formula I in rats in the anti-secretory and anti-ulcer tests described above are given in the table below. Unless noted otherwise, data were obtained on oral administration. Results in the anti-secretory activity tests are given in terms of the pH of the gastric fluid in the test animals and the percent inhibition of free acid, while results in the anti-ulcer test are given either in terms of the percent inhibition of ulcers or as a ratio representing the number of animals with ulcers (as the numerator) to the total number of animals in the test group (as the denominator). All doses are expressed in mg./kg.

[2] = test system: reserpine-induced stomach ulceration; test: as above; type: in vivo, male, albino, Sprague-Dawley rats; conditions: for inhibition in vivo at 50 mg/kg: Rattus norvegicus, sc, 18 h; for Anti-Ulcer: ratio of number of animals with ulcers to total number of animals in the test group: s.c., 50 mg./kg.
[3] = test system: secretion of gastric fluids; test: anti-secretory activity in pylorus-ligated rats (method of Shay et al.); type: in vivo, male albino Wistar rats
Description: In standard biological test procedures, described generally by Shay et al., Gastroenterology 5, 43 (1945) and 26, 906 (1954) and by Selmici et al., Acta Physiol. Acad. Sci. Hung. […] Anti-secretory activity was determined in male albino Wistar rats weighing approximately 180 g. using the method described by Shay et al. which is described as follows: the rats were divided into medicated groups of at least five rats each and control groups of ten rats. The rats were medicated orally once daily for 2 days prior to stomach ligation and once again immediately following ligation. All drugs were administered as the free base, and control rats received only the vehicle of medication. The rats were housed individually in wire cages, food was withdrawn 48 hours prior to surgery, and water was withdrawn at the time of surgery. Laparotomy was performed under light ether anesthesia, the pyloric-duodenal junction was ligated, and the wound was closed with metal clips and sprayed with a protective surgical dressing. Five hours following surgery, the rats were sacrificed, the stomach was removed, and the gastric juice collected. The gastric fluid was centrifuged, the total volume, color, and volume of solids were recorded. The pH of the gastric fluid was then determined on a Beckman pH meter, and the "free" and "total" hydrochloric acid content of each gastric sample was determined by titrating an aliquot of the gastric fluid (diluted to approximately 10 ml. with distilled water) by titrating with 0.1N sodium hydroxide against Toepfers reagent and phenolphthalein, respectively. By determining the milliequivalents of hydrochloric acid per milliliter of gastric juice and knowing the total volume of gastric juice secreted by each rat, the total acid output can be calculated. Since pH is a function of "free" acid, the activity of the test compounds can be evaluated by comparison of the mean "free" acid of medicated rats with the mean "free" acid of the controls, and the activity can thus be expressed in terms of percent inhibition of free acid.
as §1

[4] = Rattus norvegicus, po, 5 h, oral, 100 mg./kg., read-out: % Inhibition of Free Acid
[5] = Rattus norvegicus, intraduodenal, 5 h, i.d., 100 mg./kg., read-out: % Inhibition of Free Acid
[6] = Rattus norvegicus, ip, 5 h, i.p., 100 mg./kg., read-out: % Inhibition of Free Acid
[7] = Rattus norvegicus, sc, 5 h, s.c., 100 mg./kg., read-out: % Inhibition of Free Acid

Compound | inhibition in vivo at 100 mg/kg ([1]; Rattus norvegicus, 18 h, oral) [%] | inhibition in vivo at 100 mg/kg [3, 4] [%] | pH of the gastric fluid ([3]; oral, 100 mg./kg.) | inhibition in vivo at 100 mg/kg [3, 5] [%] | inhibition in vivo at 100 mg/kg [3, 6] [%] | inhibition in vivo at 100 mg/kg [3, 7] [%] | pH of the gastric fluid ([3]; i.d., 100 mg./kg.) | pH of the gastric fluid ([3]; i.p., 100 mg./kg.) | pH of the gastric fluid ([3]; s.c., 100 mg./kg.) | also measured
CNC(=O)Cn1c(C)c(C)c2ccccc21 [Example 1B, 2,3-Dimethyl-1-indole-N-methylacetamide] | 91 | 45 | 1.8 |  |  |  |  |  |  | inhibition in vivo at 50 mg/kg [2]: 93%; inhibition in vivo at 6.25 mg/kg ([3]; Rattus norvegicus, intraduodenal, 5 h, i.d., 6.25 mg./kg., read-out: % Inhibition of Free Acid): 46%; pH of the gastric fluid ([3]; i.d., 6.25 mg./kg.): 1.4
Cc1c(C)n(CC(=O)NCCO)c2ccccc12 [Example 3A, 2,3-dimethyl-1-indole-N-(2-hydroxyethyl)acetamide] | 84 | 22 | 1.4 |  |  |  |  |  |  | inhibition in vivo at 50 mg/kg [2]: 69%
Cc1c(C)n(CCC(N)=O)c2ccccc12 [Example 4A, β-(2,3-dimethyl-1-indole)propionamide] |  | 100 | 5.3 |  |  |  |  |  |  | inhibition in vivo at 1.56 mg/kg ([1]; Rattus norvegicus, 18 h, oral, 1.56 mg./kg.): 43%; inhibition in vivo at 6.25 mg/kg ([1]; Rattus norvegicus, 18 h, oral, 6.25 mg./kg.): 48%; inhibition in vivo at 25 mg/kg ([1]; Rattus norvegicus, 18 h, oral): 93%; inhibition in vivo at 50 mg/kg [2]: 89%
Cc1c(C)n(C(N)=O)c2ccc(Cl)cc12 [Example 5, 2,3-dimethyl-5-chloro-1-indolecarboxamide] |  | 41 | 2.0 |  |  |  |  |  |  | inhibition in vivo at 25 mg/kg ([1]; Rattus norvegicus, 18 h, oral): 0%
Cc1c(C=O)c2ccccc2n1CC(N)=O [Example 6, 2-methyl-3-formyl-1-indoleacetamide] | 0 |  | 1.1 |  |  |  |  |  |  | inhibition in vivo at 100 mg/kg ([3]; Rattus norvegicus, 5 h, oral, 100 mg./kg., read-out: % Inhibition of Free Acid): 0%
Cc1c(C)n(CC(N)=S)c2ccccc12 [Example 7A, 2,3-dimethyl-1-indolethioacetamide] |  | 58 | 2.3 |  |  |  |  |  |  | inhibition in vivo at 25 mg/kg ([1]; Rattus norvegicus, 18 h, oral): 75%
Cc1c(C)n(CCC(N)=S)c2ccccc12 [Example 7B, β(2,3-dimethyl-1-indole)thiopropionamide] | 100 | 60 | 2.2 |  |  |  |  |  |  | 
Cc1c(CO)c2ccccc2n1CCC(N)=O [Example 8A, β-(2-methyl-3-hydroxymethyl-1-indole)propionamide] | 56 | 69 | 1.9 | 100 | 100 | 100 | 5.6 | 7.0 | 6.7 | 
Cc1c(CO)c2ccccc2n1CCCC(N)=O [Example 8B, γ-(2-Methyl-3-hydroxymethyl-1-indole)butyramide] | 0 | 5 | 1.3 | 5 | 62 | 12 | 1.2 | 2.4 | 1.2 | 
Cc1c(CO)c2ccccc2n1CC(N)=O [Example 8C, 2-Methyl-3-hydroxymethyl-1-indoleacetamide] |  | 62 | 1.5 | 30 | 61 | 100 | 1.1 | 2.0 | 6.9 | Anti-Ulcer: ratio of number of animals with ulcers to total number of animals in the test group [2]: 0/5
NC(=O)CCn1c(-c2ccccc2)c(CO)c2ccccc21 [Example 8D, β-(2-Phenyl-3-hydroxymethyl-1-indole)propionamide] |  | 28 | 1.5 |  |  | 38 |  |  | 1.4 | Anti-Ulcer: ratio of number of animals with ulcers to total number of animals in the test group ([1]; oral): 0/5
Cc1c(CO)c2cc(F)ccc2n1CCC(N)=O [Example 8E, β-(2-Methyl-3-hydroxymethyl-5-fluoro-1-indole)propionamide] |  | 22 | 1.1 | 89 | 100 | 100 | 3.5 | 5.9 | 6.1 | Anti-Ulcer: ratio of number of animals with ulcers to total number of animals in the test group [2]: 1/3
Cc1c(C(O)C(F)(F)F)c2ccccc2n1CCC(N)=O (stereo not drawn) [Example 8F, β-[2-Methyl-3-(2-trifluoro-1-hydroxyethyl)-1-indole]-propionamide] |  | 2 | 1.0 | 69 | 24 | 7 | 1.5 | 1.2 | 1.0 | inhibition in vivo at 50 mg/kg ([1]; Rattus norvegicus, 18 h, oral, 50 mg./kg.): 45%
Cc1c(CO)n(CCC(N)=O)c2ccccc12 [Example 8G, β-(2-hydroxymethyl-3-methyl-1-indole)propionamide] |  | 22 | 1.3 | 33 | 34 |  | 1.4 | 1.7 |  | Anti-Ulcer: ratio of number of animals with ulcers to total number of animals in the test group ([1]; oral): 3/5
Cc1cn(CC(N)=O)c2ccccc12 [Reference, 3-methyl-1-indole-acetamide, reference compound] | 75 | 62 | 2.3 |  |  |  |  |  |  | anti-ulcer activity (in words) ([1]; rat, in vivo): has anti-secretory and anti-ulcer activities; anti-secretory activity (in words) ([3]; rat, in vivo): has anti-secretory and anti-ulcer activities
